Common to all, as to format: cell-based
Experiment [1] has as its system Malassezia furfur IFO-0656. Description: Antifungal activity evaluation test, MIC by urease activity, Malassezia furfur IFO-0656. The settings on record: IFO0656, 96 h, MU medium, 30° C., day 4 or 5, urease activity of 20% or below, read-out: MIC M. fur. IFO-0656. On the procedure:
(§1) The minimum inhibitory concentration (MIC) for Trichophyton mentagrophytes, Trichophyton rubrum, and Malassezia furfur was measured according to the following procedure. • Test compound solution: A test compound was dissolved in dimethyl sulfoxide (DMSO) at a concentration of 5 mg/mL as a stock solution. […] Then, as a test medium, a fungal solution of Trichophyton species was 100-fold diluted with Sabouraud Dextrose Broth (Difco), and a fungal solution of Malassezia furfur IFO-0656 was 100-fold diluted with MU medium to give each inoculum (2×10^4 cells/mL). • Measurement of MIC of Trichophyton fungi: Sabouraud Dextrose Broth (Difco) was dispensed by 100 μL to a given well of a 96 well flat microplate. Then, a test compound solution (2 μL) was added, and the mixture was thoroughly mixed with a plate mixer. A fungal solution (100 μL) was inoculated and cultured at 30° C. for 7 days. The presence or absence of the cell growth was visually observed, and the minimum medicament concentration at which the cell growth was prevented was taken as MIC (μg/mL). • Measurement of MIC of Malassezia furfur: Since the urease activity of this fungus and the fungus growth rate are co-related, MIC was evaluated by the following method using urease activity as an index. MU medium was dispensed by 100 μL to a given well of a 96 well flat microplate. Then, a test compound solution (2 μL) was added, and the mixture was thoroughly mixed with a plate mixer. A fungal solution (100 μL) was inoculated and cultured at 30° C. The culture was stopped on day 4 or 5 of culture when the color tone of the MU medium changes from yellow to red in visual observation of the fungus growth in a well free of addition of a test substance. Then the plate was stirred until the fungus became uniform, and the urease activity was measured based on the measurement of absorbance at 550 nm using a plate reader.

In experiment [2] the test system is Trichophyton mentagrophytes KD-04. In words: Antifungal activity evaluation test, MIC, Trichophyton mentagrophytes KD-04. As to conditions: KD04, 168 h, Sabouraud Dextrose Broth, 30° C., 7 days, visual, read-out: MIC T. men. KD-04. On the procedure:
as §1

Experiment [3] concerns Trichophyton mentagrophytes SM-110. In words: Antifungal activity evaluation test, MIC, Trichophyton mentagrophytes SM-110. As to conditions: SM110, 168 h, Sabouraud Dextrose Broth, 30° C., 7 days, visual, read-out: MIC T. men. SM-110. Here is the method: as §1
For experiment [4], the system named is Trichophyton rubrum KD-101. In words: Antifungal activity evaluation test, MIC, Trichophyton rubrum KD-101. As to conditions: KD101, 168 h, Sabouraud Dextrose Broth, 30° C., 7 days, visual, read-out: MIC T. rub. KD-101. On the procedure: as §1
Experiment [5] relates to Trichophyton rubrum KD-107. Description: Antifungal activity evaluation test, MIC, Trichophyton rubrum KD-107. As to conditions: KD107, 168 h, Sabouraud Dextrose Broth, 30° C., 7 days, visual, read-out: MIC T. rub. KD-107. On the procedure:
as §1

As usually defined, the MIC is the lowest concentration that inhibits growth of the organism.

SMILES strings stand for the structures. ≈ marks a conversion by molar mass, not a printed value.

For `CC(C)Oc1ccccc1C(=NN(C)C)n1ccnc1` [Compound No. 19, N′-[1-imidazol-1-yl-1-(2-isopropoxyphenyl)methylidene]-N,N-dimethylhydrazine], the MIC amounted to 25 µg/mL (≈ 91.8 µM) in experiment [1]; 0.2 µg/mL (≈ 0.734 µM) in experiment [2]; 0.2 µg/mL (≈ 0.734 µM) in experiment [3]; 0.78 µg/mL (≈ 2.86 µM) in experiment [4]; 0.2 µg/mL (≈ 0.734 µM) in experiment [5].

As to `CCCCCOc1ccc(F)cc1C(=NN(C)C)n1ccnc1` [Compound No. 25, N′-[1-(3-fluoro-6-pentyloxyphenyl)-1-imidazol-1-ylmethylidene]-N,N-dimethylhydrazine], the MIC came to 0.39 µg/mL (≈ 1.22 µM) in experiment [1]; 0.05 µg/mL (≈ 0.157 µM) in experiment [2]; 0.1 µg/mL (≈ 0.314 µM) in experiment [3]; 0.05 µg/mL (≈ 0.157 µM) in experiment [4]; 0.05 µg/mL (≈ 0.157 µM) in experiment [5].

Consider `CN(C)N=C(c1ccccc1OCc1ccccc1)n1ccnc1` [Compound No. 34, N′-[1-(2-benzyloxyphenyl)-1-imidazol-1-ylmethylidene]-N,N-dimethylhydrazine], for which the MIC in experiment [1] stood at 0.62 µg/mL (≈ 1.94 µM); in experiment [2], 0.2 µg/mL (≈ 0.624 µM); in experiment [3] it was 0.2 µg/mL (≈ 0.624 µM); in experiment [4] it was 0.2 µg/mL (≈ 0.624 µM); in experiment [5] it was 0.1 µg/mL (≈ 0.312 µM).

For `COc1cccc(COc2ccccc2C(=NN(C)C)n2ccnc2)c1` [Compound No. 53, N′-[1-imidazol-1-yl-1-[2-(3-methoxybenzyloxy)phenyl]methylidene]-N,N-dimethylhydrazine], the MIC in experiment [1] came out at 0.78 µg/mL (≈ 2.23 µM); in experiment [2], 0.2 µg/mL (≈ 0.571 µM); in experiment [3] it was 0.39 µg/mL (≈ 1.11 µM); in experiment [4], 0.2 µg/mL (≈ 0.571 µM); in experiment [5], 0.1 µg/mL (≈ 0.285 µM).

For the compound `CN(C)N=C(c1ccccc1OCCCc1ccccc1)n1ccnc1` [Compound No. 61, N′-[1-imidazol-1-yl-1-[2-(3-phenylpropoxy)phenyl]methylidene]-N,N-dimethylhydrazine], the MIC was found to be 0.2 µg/mL (≈ 0.574 µM) in experiment [1]; 0.05 µg/mL (≈ 0.143 µM) in experiment [2]; 0.1 µg/mL (≈ 0.287 µM) in experiment [3]; 0.05 µg/mL (≈ 0.143 µM) in experiment [4]; 0.025 µg/mL (≈ 0.0717 µM) in experiment [5].

As for `CSc1ccccc1C(=NN(C)C)n1ccnc1` [Compound No. 79, N′-[1-imidazol-1-yl-1-(2-methylthiophenyl)methylidene]-N,N-dimethylhydrazine], the minimum inhibitory concentration (MIC) was over 25 µg/mL in experiment [1]; 0.39 µg/mL (≈ 1.5 µM) in experiment [2]; 0.39 µg/mL (≈ 1.5 µM) in experiment [3]; 0.39 µg/mL (≈ 1.5 µM) in experiment [4]; 0.39 µg/mL (≈ 1.5 µM) in experiment [5].

Turning to `CN(C)N=C(c1ccccc1SCCOc1ccccc1)n1ccnc1` [Compound No. 85, N′-[1-imidazol-1-yl-1-[2-(2-phenoxyethylthio)phenyl]methylidene]-N,N-dimethylhydrazine], the MIC in experiment [1] was determined as 0.05 µg/mL (≈ 0.136 µM); in experiment [2] it was 0.1 µg/mL (≈ 0.273 µM); in experiment [3], 0.2 µg/mL (≈ 0.546 µM); in experiment [4] it was 0.1 µg/mL (≈ 0.273 µM); in experiment [5] it was 0.05 µg/mL (≈ 0.136 µM).

With `CCCCCN(C)c1ccccc1C(=NN(C)C)n1ccnc1` [Compound No. 87, N′-[1-imidazol-1-yl-1-[2-(N-methyl-N-pentylamino)phenyl]methylidene]-N,N-dimethylhydrazine], the MIC in experiment [1] was 0.78 µg/mL (≈ 2.49 µM); in experiment [2], 0.05 µg/mL (≈ 0.16 µM); in experiment [3], 0.1 µg/mL (≈ 0.319 µM); in experiment [4] it was 0.05 µg/mL (≈ 0.16 µM); in experiment [5] it was 0.05 µg/mL (≈ 0.16 µM).

With `CCCCCOc1ccc2ccccc2c1C(=NN(C)C)n1ccnc1` [Compound No. 93, N′-[1-imidazol-1-yl-1-(2-pentyloxynaphthalen-1-yl)methylidene]-N,N-dimethylhydrazine], the MIC in experiment [1] was 6.25 µg/mL (≈ 17.8 µM); in experiment [2], 0.2 µg/mL (≈ 0.571 µM); in experiment [3], 0.39 µg/mL (≈ 1.11 µM); in experiment [4] it was 0.1 µg/mL (≈ 0.285 µM); in experiment [5], 0.1 µg/mL (≈ 0.285 µM).

With `CCCCCOc1cccnc1C(=NN(C)C)n1ccnc1` [Compound No. 95, N′-[1-imidazol-1-yl-1-(3-pentyloxypyridin-2-yl)methylidene]-N,N-dimethylhydrazine], the minimal inhibitory concentration (MIC) was over 25 µg/mL in experiment [1]; 1.56 µg/mL (≈ 5.18 µM) in experiment [2]; 3.13 µg/mL (≈ 10.4 µM) in experiment [3]; 1.56 µg/mL (≈ 5.18 µM) in experiment [4]; 0.78 µg/mL (≈ 2.59 µM) in experiment [5].

For the compound `CCCCCCn1cccc1C(=NN(C)C)n1ccnc1` [Compound No. 104, N′-[1-(1-hexylpyrrol-2-yl)-1-imidazol-1-ylmethylidene]-N,N-dimethylhydrazine], the MIC in experiment [1] was over 25 µg/mL; in experiment [2], 0.025 µg/mL (≈ 0.087 µM); in experiment [3], 0.05 µg/mL (≈ 0.174 µM); in experiment [4], 0.025 µg/mL (≈ 0.087 µM); in experiment [5] it was 0.025 µg/mL (≈ 0.087 µM).

With `CCN(CC)N=C(c1ccccc1OCc1ccc(Cl)cc1)n1ccnc1` [Compound No. 118, N′-[1-[2-(4-chlorobenzyloxy)phenyl]-1-imidazol-1-ylmethylidene]-N,N-diethylhydrazine], the MIC worked out at 0.39 µg/mL (≈ 1.02 µM) in experiment [1]; 0.1 µg/mL (≈ 0.261 µM) in experiment [2]; 0.2 µg/mL (≈ 0.522 µM) in experiment [3]; 0.1 µg/mL (≈ 0.261 µM) in experiment [4]; 0.05 µg/mL (≈ 0.131 µM) in experiment [5].

For the compound `CN(N=C(c1ccccc1Cl)n1ccnc1)c1ccc(Cl)cc1` [Compound No. 141, N-(4-chlorophenyl)-N′-[1-(2-chlorophenyl)-1-imidazol-1-ylmethylidene]-N-methylhydrazine], the MIC in experiment [1] was over 10 µg/mL; in experiment [2], 0.2 µg/mL (≈ 0.579 µM); in experiment [3], 0.39 µg/mL (≈ 1.13 µM); in experiment [4] it was 0.39 µg/mL (≈ 1.13 µM); in experiment [5], 0.2 µg/mL (≈ 0.579 µM).

For `Fc1ccc(COc2ccccc2C(=NN2CCCC2)n2ccnc2)cc1` [Compound No. 158, [1-[2-(4-fluorobenzyloxy)phenyl]-1-imidazol-1-ylmethylidene]pyrrolidin-1-ylamine], the MIC worked out at 1.56 µg/mL (≈ 4.28 µM) in experiment [1]; 0.2 µg/mL (≈ 0.549 µM) in experiment [2]; 0.2 µg/mL (≈ 0.549 µM) in experiment [3]; 0.2 µg/mL (≈ 0.549 µM) in experiment [4]; 0.1 µg/mL (≈ 0.274 µM) in experiment [5].

`CCCCCOc1ccccc1C(=NN1CCCCC1)n1ccnc1` [Compound No. 173, [1-imidazol-1-yl-1-(2-pentyloxyphenyl)methylidene]piperidin-1-ylamine]: the MIC in experiment [1] is 0.39 µg/mL (≈ 1.15 µM); in experiment [2], 0.2 µg/mL (≈ 0.587 µM); in experiment [3], 0.2 µg/mL (≈ 0.587 µM); in experiment [4], 0.1 µg/mL (≈ 0.294 µM); in experiment [5], 0.1 µg/mL (≈ 0.294 µM).

Regarding `CCc1ccccc1C(=NN1CCCCCC1)n1ccnc1` [Compound No. 184, [1-(2-ethylphenyl)-1-imidazol-1-ylmethylidene]homopiperidin-1-ylamine], the MIC in experiment [1] was 1.56 µg/mL (≈ 5.26 µM); in experiment [2] it was 0.05 µg/mL (≈ 0.169 µM); in experiment [3] it was 0.1 µg/mL (≈ 0.337 µM); in experiment [4] it was 0.05 µg/mL (≈ 0.169 µM); in experiment [5], 0.05 µg/mL (≈ 0.169 µM).

Consider `CC(C)Oc1ccccc1C(=NN1CCCCCC1)n1ccnc1` [Compound No. 198, homopiperidin-1-yl-[1-imidazol-1-yl-1-(2-isopropoxyphenyl)methylidene]amine], for which the MIC in experiment [1] stood at 0.78 µg/mL (≈ 2.39 µM); in experiment [2], 0.1 µg/mL (≈ 0.306 µM); in experiment [3] it was 0.2 µg/mL (≈ 0.613 µM); in experiment [4] it was 0.2 µg/mL (≈ 0.613 µM); in experiment [5], 0.1 µg/mL (≈ 0.306 µM).

For the compound `C=CCOc1ccccc1C(=NN1CCCCCC1)n1ccnc1` [Compound No. 200, homopiperidin-1-yl-[1-imidazol-1-yl-1-[2-(2-propenyloxy)phenyl]methylidene]amine], the MIC was 0.2 µg/mL (≈ 0.616 µM) in experiment [1]; 0.1 µg/mL (≈ 0.308 µM) in experiment [2]; 0.1 µg/mL (≈ 0.308 µM) in experiment [3]; 0.1 µg/mL (≈ 0.308 µM) in experiment [4]; 0.1 µg/mL (≈ 0.308 µM) in experiment [5].

On to `CCCCCOc1ccc(OC)cc1C(=NN1CCCCCC1)n1ccnc1` [Compound No. 211, homopiperidin-1-yl-[1-imidazol-1-yl-1-(5-methoxy-2-pentyloxyphenyl)methylidene]amine], for which the MIC in experiment [1] turned out to be 1.56 µg/mL (≈ 4.06 µM); in experiment [2], 0.2 µg/mL (≈ 0.52 µM); in experiment [3] it was 0.39 µg/mL (≈ 1.01 µM); in experiment [4], 0.2 µg/mL (≈ 0.52 µM); in experiment [5], 0.1 µg/mL (≈ 0.26 µM).

For `c1ccc(Oc2ccccc2C(=NN2CCCCCC2)n2ccnc2)cc1` [Compound No. 212, homopiperidin-1-yl-[1-imidazol-1-yl-1-(2-phenoxyphenyl)methylidene]amine], the MIC in experiment [1] turned out to be 25 µg/mL (≈ 69.4 µM); in experiment [2], 0.39 µg/mL (≈ 1.08 µM); in experiment [3], 0.78 µg/mL (≈ 2.16 µM); in experiment [4], 0.78 µg/mL (≈ 2.16 µM); in experiment [5] it was 0.39 µg/mL (≈ 1.08 µM).

These data come from patent US8022072B2, “Azolylmethylidenehydrazine derivative and use thereof” (Kaken Pharmaceutical Co., Ltd., priority 2007, dated 2011).
